Measurements published in patent US20230174584A1, “Antibiotic Compounds” (priority 2019, published 2023).
Values after ≈ are worked out from the molar mass of the structure shown.

Key:
Assay in all cases: MIC assay
Assay type in all cases: cell-based, Enterococcus faecium
E. faecium E8235 = details: E. faecium E8235, VanB
Summary of the method: (§1)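 We measured MICs by CLSI broth microdilution with polysorbate 80 (0.002%) in TSB, a 10^6 CFU/mL inoculum, and a 24 h, 37 °C shaken incubation.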

E. faecium E7329 = details: E. faecium E7329, VanA
Summary of the method: as §1

E. faecium E2365 = details: E. faecium E2365, VanB
Summary of the method: as §1

E. faecium E0506 = details: E. faecium E0506, VanA
Summary of the method: as §1

E. faecium E2297 = details: E. faecium E2297, VanA
Summary of the method: as §1

E. faecium E7401 = details: E. faecium E7401, VanB
Summary of the method: as §1

E. faecium E1679 = details: E. faecium E1679, VanA
Summary of the method: as §1

E. faecium E980 = system: E. faecium E980
Summary of the method: as §1

E. faecium E7403 = details: E. faecium E7403, VanB
Summary of the method: as §1

E. faecium E0072 = details: E. faecium E0072, VanA
Summary of the method: as §1

E. faecium E1763 = details: E. faecium E1763, VanA
Summary of the method: as §1

E. faecium E7424 = details: E. faecium E7424, VanB
Summary of the method: as §1

E. faecium E7319 = details: E. faecium E7319, VanA
Summary of the method: as §1

E. faecium E0013 = details: E. faecium E0013, VanA
Summary of the method: as §1

E. faecium E2373 = details: E. faecium E2373, VanA
Summary of the method: as §1

E. faecium E0333 = details: E. faecium E0333, VanA
Summary of the method: as §1

E. faecium EO321 = details: E. faecium EO321, VanA
Summary of the method: as §1

E. faecium E1130 = details: E. faecium E1130, VanA
Summary of the method: as §1

E. faecium E0300 = details: E. faecium E0300, VanA
Summary of the method: as §1

E. faecium E8218 = details: E. faecium E8218, VanB
Summary of the method: as §1

E. faecium E7464 = details: E. faecium E7464, VanB
Summary of the method: as §1

SMILES | MIC (E. faecium E8235) [µg/mL] | MIC (E. faecium E7329) [µg/mL] | MIC (E. faecium E2365) [µg/mL] | MIC (E. faecium E0506) [µg/mL] | MIC (E. faecium E2297) [µg/mL] | MIC (E. faecium E7401) [µg/mL] | MIC (E. faecium E1679) [µg/mL] | MIC (E. faecium E980; E. faecium E980 VSE) [µg/mL] | MIC (E. faecium E7403) [µg/mL] | MIC (E. faecium E0072) [µg/mL] | MIC (E. faecium E1763) [µg/mL] | MIC (E. faecium E7424) [µg/mL] | MIC (E. faecium E7319) [µg/mL] | MIC (E. faecium E0013) [µg/mL] | MIC (E. faecium E2373) [µg/mL] | MIC (E. faecium E0333) [µg/mL] | MIC (E. faecium EO321) [µg/mL] | MIC (E. faecium E1130) [µg/mL] | MIC (E. faecium E0300) [µg/mL] | MIC (E. faecium E8218) [µg/mL] | further results
CCCCCCCNC(N)=Nc1ccc(CN[C@@]2(C)C[C@H](O[C@H]3[C@H](Oc4c5cc6cc4Oc4ccc(cc4Cl)[C@@H](O)[C@@H](NC(=O)[C@@H](CC(C)C)NC)C(=O)N[C@@H](CC(N)=O)C(=O)N[C@H]6C(=O)N[C@H]4C(=O)N[C@H](C(=O)N[C@H](C(=O)O)c6cc(O)cc(O)c6-c6cc4ccc6O)[C@H](O)c4ccc(c(Cl)c4)O5)O[C@H](CO)[C@@H](O)[C@@H]3O)O[C@@H](C)[C@H]2O)cc1 [Compound 5] | ≤0.008 | ≤0.008 | ≤0.008 | 2 (≈ 1.18 µM) | 2 (≈ 1.18 µM) | ≤0.008 | 16 (≈ 9.44 µM) | ≤0.007812 | ≤0.008 | 0.25 (≈ 0.148 µM) | 0.25 (≈ 0.148 µM) | ≤0.008 | 0.5 (≈ 0.295 µM) | 4 (≈ 2.36 µM) | 4 (≈ 2.36 µM) | 8 (≈ 4.72 µM) | 8 (≈ 4.72 µM) | ≤0.008 | 4 (≈ 2.36 µM) | ≤0.008 | MIC (E. faecium E7464): ≤0.008 µg/mL
CCCCCCCCNC(N)=Nc1ccc(CN[C@@]2(C)C[C@H](O[C@H]3[C@H](Oc4c5cc6cc4Oc4ccc(cc4Cl)[C@@H](O)[C@@H](NC(=O)[C@@H](CC(C)C)NC)C(=O)N[C@@H](CC(N)=O)C(=O)N[C@H]6C(=O)N[C@H]4C(=O)N[C@H](C(=O)N[C@H](C(=O)O)c6cc(O)cc(O)c6-c6cc4ccc6O)[C@H](O)c4ccc(c(Cl)c4)O5)O[C@H](CO)[C@@H](O)[C@@H]3O)O[C@@H](C)[C@H]2O)cc1 [Compound 6] | ≤0.008 | ≤0.008 | ≤0.008 | 2 (≈ 1.17 µM) | 1 (≈ 0.585 µM) | ≤0.008 | 8 (≈ 4.68 µM) | 0.01562 (≈ 0.00914 µM) | ≤0.008 | 0.5 (≈ 0.293 µM) | 0.031 (≈ 0.0181 µM) | ≤0.008 | 0.125 (≈ 0.0732 µM) | 1 (≈ 0.585 µM) | 2 (≈ 1.17 µM) | 4 (≈ 2.34 µM) | 4 (≈ 2.34 µM) | ≤0.008 | 2 (≈ 1.17 µM) | ≤0.008 | MIC (E. faecium E7464): ≤0.008 µg/mL
CCCCCCCCCNC(N)=Nc1ccc(CN[C@@]2(C)C[C@H](O[C@H]3[C@H](Oc4c5cc6cc4Oc4ccc(cc4Cl)[C@@H](O)[C@@H](NC(=O)[C@@H](CC(C)C)NC)C(=O)N[C@@H](CC(N)=O)C(=O)N[C@H]6C(=O)N[C@H]4C(=O)N[C@H](C(=O)N[C@H](C(=O)O)c6cc(O)cc(O)c6-c6cc4ccc6O)[C@H](O)c4ccc(c(Cl)c4)O5)O[C@H](CO)[C@@H](O)[C@@H]3O)O[C@@H](C)[C@H]2O)cc1 [Compound 7] | ≤0.008 | ≤0.008 | ≤0.008 | 0.5 (≈ 0.29 µM) | 0.5 (≈ 0.29 µM) | ≤0.008 | 4 (≈ 2.32 µM) | 0.03125 (≈ 0.0181 µM) | ≤0.008 | 0.125 (≈ 0.0726 µM) | ≤0.008 | ≤0.008 | 0.063 (≈ 0.0366 µM) | 0.5 (≈ 0.29 µM) | 0.5 (≈ 0.29 µM) | 1 (≈ 0.58 µM) | 1 (≈ 0.58 µM) | ≤0.008 | 0.5 (≈ 0.29 µM) | ≤0.008 | MIC (E. faecium E7464): ≤0.008 µg/mL
CCCCCCN(CCCCCC)C(N)=Nc1ccc(CN[C@@]2(C)C[C@H](O[C@H]3[C@H](Oc4c5cc6cc4Oc4ccc(cc4Cl)[C@@H](O)[C@@H](NC(=O)[C@@H](CC(C)C)NC)C(=O)N[C@@H](CC(N)=O)C(=O)N[C@H]6C(=O)N[C@H]4C(=O)N[C@H](C(=O)N[C@H](C(=O)O)c6cc(O)cc(O)c6-c6cc4ccc6O)[C@H](O)c4ccc(c(Cl)c4)O5)O[C@H](CO)[C@@H](O)[C@@H]3O)O[C@@H](C)[C@H]2O)cc1 [Compound 12] | ≤0.008 | ≤0.008 | ≤0.008 | 1 (≈ 0.567 µM) | 1 (≈ 0.567 µM) | ≤0.008 | 8 (≈ 4.53 µM) | ≤0.007812 | ≤0.008 | 0.25 (≈ 0.142 µM) | 0.031 (≈ 0.0176 µM) | ≤0.008 | 0.25 (≈ 0.142 µM) | 2 (≈ 1.13 µM) | 1 (≈ 0.567 µM) | 2 (≈ 1.13 µM) | 2 (≈ 1.13 µM) | ≤0.008 | 1 (≈ 0.567 µM) | ≤0.008 | MIC (E. faecium E7464): ≤0.008 µg/mL
CN[C@H](CC(C)C)C(=O)N[C@H]1C(=O)N[C@@H](CC(N)=O)C(=O)N[C@H]2C(=O)N[C@H]3C(=O)N[C@H](C(=O)N[C@H](C(=O)O)c4cc(O)cc(O)c4-c4cc3ccc4O)[C@H](O)c3ccc(c(Cl)c3)Oc3cc2cc(c3O[C@@H]2O[C@H](CO)[C@@H](O)[C@H](O)[C@H]2O[C@H]2C[C@](C)(NCc3ccc(N=C(N)NC/C=C(\C)CCC=C(C)C)cc3)[C@H](O)[C@H](C)O2)Oc2ccc(cc2Cl)[C@H]1O [Compound 14] | ≤0.008 | ≤0.008 | ≤0.008 | 2 (≈ 1.15 µM) | 2 (≈ 1.15 µM) | ≤0.008 | 16 (≈ 9.23 µM) | ≤0.007812 | ≤0.008 | 0.5 (≈ 0.289 µM) | 0.125 (≈ 0.0721 µM) | ≤0.008 | 0.5 (≈ 0.289 µM) | 2 (≈ 1.15 µM) | 4 (≈ 2.31 µM) | 8 (≈ 4.62 µM) | 8 (≈ 4.62 µM) | ≤0.008 | 4 (≈ 2.31 µM) | ≤0.008 | MIC (E. faecium E7464): ≤0.008 µg/mL
CN[C@H](CC(C)C)C(=O)N[C@H]1C(=O)N[C@@H](CC(N)=O)C(=O)N[C@H]2C(=O)N[C@H]3C(=O)N[C@H](C(=O)N[C@H](C(=O)O)c4cc(O)cc(O)c4-c4cc3ccc4O)[C@H](O[C@H]3C[C@](C)(N)[C@@H](O)[C@H](C)O3)c3ccc(c(Cl)c3)Oc3cc2cc(c3O[C@@H]2O[C@H](CO)[C@@H](O)[C@H](O)[C@H]2O[C@H]2C[C@](C)(NCc3ccc(-c4ccc(Cl)cc4)cc3)[C@@H](O)[C@H](C)O2)Oc2ccc(cc2Cl)[C@H]1O [Oritavancin] |  |  |  |  |  |  |  |  |  |  |  |  |  |  |  |  |  |  |  |  | MIC (E. faecium E980; Enterococcus faecium, E980): 0.0625 µg/mL (≈ 0.0349 µM)
